The test system of one test is MCF-7 tumors. In words: MCF-7 tumors in mammary fat pads of athymic nude mice, tamoxifen treatment after removal of estrogen pellet. In kind it is in vivo. Particulars: athymic nude mice with MCF-7 tumors; estrogen pellets removed, treated with tamoxifen; later tumors became resistant and growth resumed. On the procedure: (§1) MCF-7 tumors were inoculated into the mammary fat pads of athymic nude mice supplemented with an estrogen pellet as described previously (Osborne et al., 1985) until tumors arose. The estrogen pellets were removed and the animals were treated with tamoxifen. […] Invariably, however, after initial growth suppression, the tumors became resistant and growth resumed. Animals were sacrificed at various times to obtain cells from estrogen-stimulated (ES) tumors prior to tamoxifen treatment, from tamoxifen-sensitive (TS) tumors during tamoxifen treatment but prior to acquired resistance, and from tamoxifen-resistant (TR) tumors after tumor growth had resumed.

In a further test the test system is VEGF. Briefly: cDNA expression array of MCF-7 tumors (estrogen-stimulated, tamoxifen-sensitive, tamoxifen-resistant). The format is in vivo, human. Particulars: breast cancers treated with tamoxifen in comparison with estrogen-stimulated breast cancer; FIG. 6. As to the method:
as §1
(§2) RNA was prepared from these tumors (n=5 tumors per group) using RNeasy kits (Qiagen Inc., Valencia, Calif.), and mRNA was isolated on Dynabeads (Dyne, Oslo, Norway) according to manufacturer's instructions. […]
(§3) The controls, which were more difficult to quantitate reliably, were not included in the statistical analyses. […]
(§4) Principal Components Analysis (PCA) of mean-centered log-transformed data, based on the variance-covariance matrix (Tatsuoka, 1971), was then used to standardize across the three hybridizations and to extract three new axes (components P1, P2, and P3), expressed as linear combinations of the original axes (ES, TS, and TR). […]

Another test has as its system bFGFR. Described as above. In kind it is in vivo, human. As to conditions: breast cancers treated with tamoxifen in comparison with estrogen-stimulated breast cancer; FIG. 6. As to the method: as §1, §2, §3, §4

One molecule from US20020164663A1, “Methods and compositions for detection, diagnosis and prediction of antiestrogen-resistant breast cancer” (BOARD OF REGENTS, THE UNIVERSITY OF TEXAS SYSTEM, priority 1998, published 2002) can be followed below.

SMILES strings stand for the structures.

Take `CC/C(=C(\c1ccccc1)c1ccc(OCCN(C)C)cc1)c1ccccc1` [tamoxifen]: the Tumor volumes result in the test with MCF-7 tumors was “declined and remained stable for several months”. Also, the VEGF expression result in the test with VEGF is given as “decreased expression”. Moreover, the bFGFR expression entry with bFGFR was “decreased expression”.
